From patent US10053422B2, “Compounds for the treatment of mTOR pathway related diseases” (Pitney Pharmaceuticals Pty Limited, priority 2012, dated 2018)
Entries after “also recorded” stand apart in the source; their conditions may differ. Read-outs that look alike come from different tables or passages of the source.

Experiments:
OVCAR-3 cells = test: SRB cell proliferation assay, OVCAR-3; type: cell-based, human
Protocol: (§1) Cell proliferation was assessed using the sulforhodamine B (SRB) assay. Cells seeded in 96-well plate (2,000-3,000 cell/well) were treated with MPL (0, 1, 5, 10, 25, 50 and 100 μmol/L) for 72 h. Cells were then fixed, washed and stained with 100 μl of 0.4% (w/v) SRB dissolved in 1% acetic acid. Unbound dye was removed by five washes with 1% acetic acid before air drying. Bound SRB was solubilized with 100 μl of 10 mM Tris base (pH 10.5) and the absorbance read at 570 nm. Exactly the same procedure was used to assess MPL-SO2. Both agents were dissolved in ethanol and diluted with media to give the final concentrations required for cell culture assays.

MDA-MB-231 cells = test: SRB cell proliferation assay, MDA-MB-231; type: cell-based; conditions: Homo sapiens
Protocol: as §1

YOU cells (mesothelioma) = test: SRB cell proliferation assay, YOU; type: cell-based; conditions: for IC50: YOU
Protocol: as §1

[1] = system: PC-3 prostate cancer cells; test: SRB cell proliferation assay, PC-3; type: cell-based
Protocol: as §1

[2] = system: DU-145 prostate cancer cells; test: SRB cell proliferation assay, DU-145; type: cell-based; conditions: for IC50: Homo sapiens
Protocol: as §1

U87 cells (glioblastoma) = test: SRB cell proliferation assay, U87; type: cell-based; conditions: for IC50: Homo sapiens, U-87 MG
Protocol: as §1

[3] = system: CHO (Chinese hamster ovarian cells); test: SRB cell proliferation assay, CHO; type: cell-based; conditions: Cricetulus griseus; CHO = Chinese hamster ovarian cells (Table 3); read-out: IC50 μM CHO
Protocol: as §1

OVCAR-3 or A2780 cells = test: Colony formation assay; type: cell-based, human
Protocol: FIG. 2A, FIG. 2B, and FIG. 2C show the effect of MPL on the colony formation activity of OVCAR-3 cells. Following incubation of cells with MPL (0, 5, 10 and 25 μmol/L) for 72 hours, cells were washed, transferred to agar plates, cultured with their regular growth medium and incubated under standard conditions for 2 weeks. Cells were then fixed with 100% methanol and stained with 1% crystal violet. Colonies (a cluster of cells greater than 50) were counted under a microscope (magnification ×5). The number of colonies counted for different experimental groups is expressed as a percentage of the control.
Following incubation of cells with MPL (0, 5, 10, 25 μM) for 72 h, cells were washed and then transferred to agar plates, cultured with their regular growth medium and incubated under standard conditions for 2 weeks. Cells were then fixed with 100% methanol and stained with 1% crystal violet. Colonies (cluster of cells greater than 50) were counted under microscope (magnification ×5). Number of colonies counted for different experimental groups is expressed as % of control.
For colony formation assay, […], such as OVCAR-3 or A2780 cells, were plated in 100 mm Petri dishes and allowed to attach overnight. […] Colonies consisting of more than 50 cells were counted under an inverted microscope. […]

[4] = system: cdk2, cdk4, cyclins A, and E; test: Western blot of cell cycle regulatory proteins; type: cell-based; conditions: MPL 0, 5, 10, 25 μM
Protocol: (§2) Whole-protein extracts were obtained and separated by electrophoresis and immunoblots were probed with the indicated antibodies. Western blot analysis showing the levels of these proteins in each extract was analysed using the relevant antibodies. The image represents the exposed radiographic film scanned. The house-keeping gene (GAPDH) was used to confirm similar protein loading and blot transfer.
as §2, with “electrophoresis,” for “electrophoresis”
Protein expression in cells was determined using western blot analysis. After treatment with the indicated concentrations of MPL, cell lysates were prepared and probed with antibodies for cdk2, cdk4, cyclin A, cyclin E, PARP-1 (1:1000 dilutions; Cell Signalling Technology), and p53 (1:200 dilutions; Santa Cruz Biotechnology).

c-Myc and cyclin D1 = test: Western blot of c-Myc and cyclin D1 in OVCAR-3 cells; type: cell-based, human; conditions: 0, 5, 10, 15 and 25 μM MPL for 48 hours
Protocol: In further experiments, after treatment with the indicated concentrations of MPL, cell lysates were prepared and probed with antibodies for c-Myc, cyclin D1, cyclin E, cdk2, cdk4, IGF-1R (Cell Signalling Technology), and (anta Cruz Biotechnology, Australia).

[5] = system: NF-κB signal transduction pathway in LPS-stimulated RAW 264.7 cells; test: NF-κB signal transduction in LPS-stimulated macrophages; type: cell-based
Description: LPS-stimulated RAW 264.7 cells macrophages were used as an in vitro model system for inflammation.

U251 glioma cells = test: Autophagy (vacuoles), U251; type: cell-based
Description: Concentration-dependent conversion of LC3-I to LC3-II confirms the increasing phenomenon of autophagy in these cells.

[6] = highly resistant to chemotherapy

C[C@](C#N)(COc1cc(C#N)ccc1C(F)(F)F)NC(=O)c1ccc(SC(F)(F)F)cc1 [MPL, N-[(1S)-1-Cyano-2-(5-cyano-2-trifluoromethyl-phenoxy)-1-methyl-ethyl]-4-trifluoromethylsulfanyl-benzamide]
IC50 (OVCAR-3 cells; Homo sapiens, OVCAR-3, ovarian cancer, 72 h in vitro treatment, SRB assay (Table 1), read-out: IC50): 6.3 µM
IC50 (OVCAR-3 cells; OVCAR-3, human epithelial ovarian cancer (Table 3), read-out: IC50 μM OVCAR-3): 7.9 ± 0.9 µM
potency of MPL-(R) compared with MPL-(S) (OVCAR-3 cells; results of Table 3): equipotent
IC50 (MDA-MB-231 cells; MDA-MB-231, breast cancer (Table 2), read-out: IC50 in suppressing proliferation): 23.8 ± 0.2 µM
IC50 (MDA-MB-231 cells; MDA-MB-231, breast cancer, 72 h, SRB assay (Table 1), read-out: IC50): 24 µM
IC50 (YOU cells (mesothelioma); mesothelioma (Table 2), read-out: IC50 in suppressing proliferation): 23 µM
IC50 (YOU cells (mesothelioma); mesothelioma, 72 h, SRB assay (Table 1), read-out: IC50): 23.1 µM
replication of YOU cells (YOU cells (mesothelioma); [6]): profoundly suppressed
IC50 ([1]; PC-3, prostate cancer (Table 2), read-out: IC50 in suppressing proliferation): 21 µM
IC50 ([1]; PC-3, prostate cancer, 72 h, SRB assay (Table 1), read-out: IC50): 21.6 µM
effect on PC-3 cells ([1]; chemo-resistant, androgen insensitive PC-3): very effective
IC50 ([2]; DU-145, prostate cancer (Table 2), read-out: IC50 in suppressing proliferation): 23 µM
IC50 ([2]; DU-145, prostate cancer, 72 h, SRB assay (Table 1), read-out: IC50): 23.5 µM
effect on DU 145 cells ([2]; chemo-resistant, androgen insensitive DU 145): very effective
IC50 (U87 cells (glioblastoma); U87, glioblastoma, 72 h, SRB assay (Table 1), read-out: IC50): 26.2 µM
IC50 (U87 cells (glioblastoma); U87, glioma (Table 2), read-out: IC50 in suppressing proliferation): 18 µM
replication of U87 cells (U87 cells (glioblastoma); [6]): profoundly suppressed
IC50 [3]: 34.6 µM
colony formation (OVCAR-3 or A2780 cells; 72 h exposure (0, 5, 10, 25 μM), then 2 weeks drug free): profoundly hinders colony formation; also recorded: concentration-dependent inhibition of colony formation
clonogenic ability at higher concentrations (OVCAR-3 or A2780 cells; higher concentrations of MPL, 72 h exposure): almost complete loss of clonogenic ability
expression of cell cycle regulatory proteins cdk2, cdk4, cyclins A and E [4]: lower levels of cdk2, cdk4, cyclins A, and E
c-Myc and cyclin D1 expression (c-Myc and cyclin D1): down-regulation of c-Myc and cyclin D1 expression
IKK phosphorylation [5]: inhibitory effect
IL-6 expression [5]: down regulation of IL-6 expression
IκB-α phosphorylation [5]: inhibitory effect
NF-κB p65 phosphorylation [5]: inhibitory effect
NO expression [5]: abrogates NO expression
TGF-β expression [5]: down regulation of TGF-β expression
NF-κB activation ([5]; immunocytochemistry and Western blot): decreased NF-κB activation
formation of autophagy (vacuoles) (U251 glioma cells): concentration-dependent formation of autophagy
